{"source": "patent US20210254056A1", "about": "“IDENTIFICATION AND TARGETED MODULATION OF GENE SIGNALING NETWORKS” (CAMP4 THERAPEUTICS CORPORATION, priority 2017, published 2021)", "test_system": "hepatocytes", "test": "RNA-seq of hepatocytes treated with Phase III failure compounds", "conditions": "hepatocytes", "protocol": "RNA-seq was performed to determine the effects of the compounds on hepatocytes.\nSignificance was determined by the criteria of FPKM≥0.5, a log 2(fold-change)≥1, and a […].", "data": [{"smiles": "CCC(CC)[C@H](NC(C)=O)[C@@H]1[C@H](O)[C@@H](C(=O)O)C[C@H]1NC(=N)N.O.O.O", "note": "[peramivir (trihydrate), peramivir]", "values": [{"measurement": "RNA-seq results, PTRH2", "setting": "gene PTRH2", "value": 0.15}, {"measurement": "RNA-seq results: PTRH2", "setting": "gene PTRH2", "value": "−0.47"}, {"measurement": "RNA-seq results, PUS1", "setting": "gene PUS1", "value": 0.16}, {"measurement": "RNA-seq results: PUS1", "setting": "gene PUS1", "value": 0.29}, {"measurement": "RNA-seq results, PXMP2", "setting": "gene PXMP2", "value": 0.19}, {"measurement": "RNA-seq results: PXMP2", "setting": "gene PXMP2", "value": "−0.29"}, {"measurement": "RNA-seq results, PXMP4", "setting": "gene PXMP4", "value": 0.22}, {"measurement": "RNA-seq results: PXMP4", "setting": "gene PXMP4", "value": "−0.05"}, {"measurement": "RNA-seq results, RAI1", "setting": "gene RAI1", "value": 0.12}, {"measurement": "RNA-seq results: RAI1", "setting": "gene RAI1", "value": 0.38}, {"measurement": "RNA-seq results, RANBP2", "setting": "gene RANBP2", "value": "−0.29"}, {"measurement": "RNA-seq results: RANBP2", "setting": "gene RANBP2", "value": "−0.16"}, {"measurement": "RNA-seq results, RASA1", "setting": "gene RASA1", "value": "−0.13"}, {"measurement": "RNA-seq results: RASA1", "setting": "gene RASA1", "value": "−0.26"}, {"measurement": "RNA-seq results, RBCK1", "setting": "gene RBCK1", "value": 0.64}, {"measurement": "RNA-seq results: RBCK1", "setting": "gene RBCK1", "value": 0.26}, {"measurement": "RNA-seq results, RBM10", "setting": "gene RBM10", "value": 0.13}, {"measurement": "RNA-seq results: RBM10", "setting": "gene RBM10", "value": 0.11}, {"measurement": "RNA-seq results, REN", "setting": "gene REN", "value": 0}, {"measurement": "RNA-seq results: REN", "setting": "gene REN", "value": 0.46}, {"measurement": "RNA-seq results, RMND1", "setting": "gene RMND1", "value": "−0.07"}, {"measurement": "RNA-seq results: RMND1", "setting": "gene RMND1", "value": "−0.47"}, {"measurement": "RNA-seq results, RMRP", "setting": "gene RMRP", "value": 0.54}, {"measurement": "RNA-seq results: RMRP", "setting": "gene RMRP", "value": "−1.76"}, {"measurement": "RNA-seq results, RNASEH2A", "setting": "gene RNASEH2A", "value": 0.54}, {"measurement": "RNA-seq results: RNASEH2A", "setting": "gene RNASEH2A", "value": "−0.19"}, {"measurement": "RNA-seq results, RORC", "setting": "gene RORC", "value": 0.4}, {"measurement": "RNA-seq results: RORC", "setting": "gene RORC", "value": 0.58}, {"measurement": "RNA-seq results, RPGRIP1L", "setting": "gene RPGRIP1L", "value": "−0.2"}, {"measurement": "RNA-seq results: RPGRIP1L", "setting": "gene RPGRIP1L", "value": "−0.12"}, {"measurement": "RNA-seq results, RRM2B", "setting": "gene RRM2B", "value": "−0.53"}, {"measurement": "RNA-seq results: RRM2B", "setting": "gene RRM2B", "value": "−0.34"}, {"measurement": "RNA-seq results, RSAD1", "setting": "gene RSAD1", "value": 0.1}, {"measurement": "RNA-seq results: RSAD1", "setting": "gene RSAD1", "value": 0.11}, {"measurement": "RNA-seq results, SAMHD1", "setting": "gene SAMHD1", "value": "−0.29"}, {"measurement": "RNA-seq results: SAMHD1", "setting": "gene SAMHD1", "value": "−0.43"}, {"measurement": "RNA-seq results, SC5D", "setting": "gene SC5D", "value": 0.05}, {"measurement": "RNA-seq results: SC5D", "setting": "gene SC5D", "value": "−0.56"}, {"measurement": "RNA-seq results, SCARB1", "setting": "gene SCARB1", "value": 0.12}, {"measurement": "RNA-seq results: SCARB1", "setting": "gene SCARB1", "value": 0.11}, {"measurement": "RNA-seq results, SCN9A", "setting": "gene SCN9A", "value": "−0.56"}, {"measurement": "RNA-seq results: SCN9A", "setting": "gene SCN9A", "value": "−0.09"}, {"measurement": "RNA-seq results, SDCCAG8", "setting": "gene SDCCAG8", "value": "−0.12"}, {"measurement": "RNA-seq results: SDCCAG8", "setting": "gene SDCCAG8", "value": "−0.10"}, {"measurement": "RNA-seq results, SEPN1", "setting": "gene SEPN1", "value": 0.26}, {"measurement": "RNA-seq results: SEPN1", "setting": "gene SEPN1", "value": "−0.02"}, {"measurement": "RNA-seq results, SERAC1", "setting": "gene SERAC1", "value": "−0.1"}, {"measurement": "RNA-seq results: SERAC1", "setting": "gene SERAC1", "value": "−0.34"}, {"measurement": "RNA-seq results, SERPINA1", "setting": "gene SERPINA1", "value": "−0.03"}, {"measurement": "RNA-seq results: SERPINA1", "setting": "gene SERPINA1", "value": "−0.16"}, {"measurement": "RNA-seq results, SERPING1", "setting": "gene SERPING1", "value": 0.12}, {"measurement": "RNA-seq results: SERPING1", "setting": "gene SERPING1", "value": "−0.27"}, {"measurement": "RNA-seq results, SERPINI1", "setting": "gene SERPINI1", "value": "−0.33"}, {"measurement": "RNA-seq results: SERPINI1", "setting": "gene SERPINI1", "value": "−0.37"}, {"measurement": "RNA-seq results, SETBP1", "setting": "gene SETBP1", "value": "−0.1"}, {"measurement": "RNA-seq results: SETBP1", "setting": "gene SETBP1", "value": 0.05}, {"measurement": "RNA-seq results, SFXN4", "setting": "gene SFXN4", "value": 0.09}, {"measurement": "RNA-seq results: SFXN4", "setting": "gene SFXN4", "value": "−0.17"}, {"measurement": "RNA-seq results, SLC2A1", "setting": "gene SLC2A1", "value": 0.56}, {"measurement": "RNA-seq results: SLC2A1", "setting": "gene SLC2A1", "value": 0.08}, {"measurement": "RNA-seq results, SLC2A2", "setting": "gene SLC2A2", "value": "−0.62"}, {"measurement": "RNA-seq results: SLC2A2", "setting": "gene SLC2A2", "value": "−0.24"}, {"measurement": "RNA-seq results, SLC2A9", "setting": "gene SLC2A9", "value": 0.24}, {"measurement": "RNA-seq results: SLC2A9", "setting": "gene SLC2A9", "value": 0.16}, {"measurement": "RNA-seq results, SLC4A4", "setting": "gene SLC4A4", "value": "−0.08"}, {"measurement": "RNA-seq results: SLC4A4", "setting": "gene SLC4A4", "value": "−0.30"}, {"measurement": "RNA-seq results, SLC6A6", "setting": "gene SLC6A6", "value": 0.1}, {"measurement": "RNA-seq results: SLC6A6", "setting": "gene SLC6A6", "value": "−0.29"}, {"measurement": "RNA-seq results, SLC6A8", "setting": "gene SLC6A8", "value": 0.26}, {"measurement": "RNA-seq results: SLC6A8", "setting": "gene SLC6A8", "value": 0.27}, {"measurement": "RNA-seq results, SLC6A20", "setting": "gene SLC6A20", "value": 0.4}, {"measurement": "RNA-seq results: SLC6A20", "setting": "gene SLC6A20", "value": "−0.44"}, {"measurement": "RNA-seq results, SLC7A7", "setting": "gene SLC7A7", "value": "−0.01"}, {"measurement": "RNA-seq results: SLC7A7", "setting": "gene SLC7A7", "value": 0.03}, {"measurement": "RNA-seq results, SLC10A1", "setting": "gene SLC10A1", "value": "−0.05"}, {"measurement": "RNA-seq results: SLC10A1", "setting": "gene SLC10A1", "value": "−0.14"}, {"measurement": "RNA-seq results, SLC10A3", "setting": "gene SLC10A3", "value": 0.11}, {"measurement": "RNA-seq results: SLC10A3", "setting": "gene SLC10A3", "value": 0.57}, {"measurement": "RNA-seq results, SLC10A5", "setting": "gene SLC10A5", "value": "−0.66"}, {"measurement": "RNA-seq results: SLC10A5", "setting": "gene SLC10A5", "value": 0.46}, {"measurement": "RNA-seq results, SLC10A7", "setting": "gene SLC10A7", "value": "−0.13"}, {"measurement": "RNA-seq results: SLC10A7", "setting": "gene SLC10A7", "value": "−0.54"}, {"measurement": "RNA-seq results, SLC11A2", "setting": "gene SLC11A2", "value": 0.08}, {"measurement": "RNA-seq results: SLC11A2", "setting": "gene SLC11A2", "value": 0.04}, {"measurement": "RNA-seq results, SLC19A1", "setting": "gene SLC19A1", "value": 0.2}, {"measurement": "RNA-seq results: SLC19A1", "setting": "gene SLC19A1", "value": 0.05}, {"measurement": "RNA-seq results, SLC19A2", "setting": "gene SLC19A2", "value": 0.09}, {"measurement": "RNA-seq results: SLC19A2", "setting": "gene SLC19A2", "value": "−0.17"}, {"measurement": "RNA-seq results, SLC19A3", "setting": "gene SLC19A3", "value": 0}, {"measurement": "RNA-seq results: SLC19A3", "setting": "gene SLC19A3", "value": "−0.16"}, {"measurement": "RNA-seq results, SLC22A1", "setting": "gene SLC22A1", "value": 0.13}, {"measurement": "RNA-seq results: SLC22A1", "setting": "gene SLC22A1", "value": "−0.12"}, {"measurement": "RNA-seq results, SLC22A5", "setting": "gene SLC22A5", "value": 0.12}, {"measurement": "RNA-seq results: SLC22A5", "setting": "gene SLC22A5", "value": "−0.16"}, {"measurement": "RNA-seq results, SLC25A1", "setting": "gene SLC25A1", "value": 0.16}, {"measurement": "RNA-seq results: SLC25A1", "setting": "gene SLC25A1", "value": 0.33}, {"measurement": "RNA-seq results, SLC25A10", "setting": "gene SLC25A10", "value": 0.09}, {"measurement": "RNA-seq results: SLC25A10", "setting": "gene SLC25A10", "value": 0.12}, {"measurement": "RNA-seq results, SLC25A12", "setting": "gene SLC25A12", "value": 0.29}, {"measurement": "RNA-seq results: SLC25A12", "setting": "gene SLC25A12", "value": 0.27}, {"measurement": "RNA-seq results, SLC25A13", "setting": "gene SLC25A13", "value": 0.11}, {"measurement": "RNA-seq results: SLC25A13", "setting": "gene SLC25A13", "value": "−0.17"}, {"measurement": "RNA-seq results, SLC25A15", "setting": "gene SLC25A15", "value": "−0.01"}, {"measurement": "RNA-seq results: SLC25A15", "setting": "gene SLC25A15", "value": 0.03}, {"measurement": "RNA-seq results, SLC25A19", "setting": "gene SLC25A19", "value": "−0.01"}, {"measurement": "RNA-seq results: SLC25A19", "setting": "gene SLC25A19", "value": "−0.19"}, {"measurement": "RNA-seq results, SLC25A20", "setting": "gene SLC25A20", "value": "−0.1"}, {"measurement": "RNA-seq results: SLC25A20", "setting": "gene SLC25A20", "value": "−0.32"}, {"measurement": "RNA-seq results, SLC25A29", "setting": "gene SLC25A29", "value": 0.22}, {"measurement": "RNA-seq results: SLC25A29", "setting": "gene SLC25A29", "value": 0.65}, {"measurement": "RNA-seq results, SLC25A32", "setting": "gene SLC25A32", "value": "−0.09"}, {"measurement": "RNA-seq results: SLC25A32", "setting": "gene SLC25A32", "value": "−0.32"}, {"measurement": "RNA-seq results, SLC27A2", "setting": "gene SLC27A2", "value": "−0.21"}, {"measurement": "RNA-seq results: SLC27A2", "setting": "gene SLC27A2", "value": "−0.36"}, {"measurement": "RNA-seq results, SLC27A5", "setting": "gene SLC27A5", "value": 0.25}, {"measurement": "RNA-seq results: SLC27A5", "setting": "gene SLC27A5", "value": 0.13}, {"measurement": "RNA-seq results, SLC29A3", "setting": "gene SLC29A3", "value": 0.07}, {"measurement": "RNA-seq results: SLC29A3", "setting": "gene SLC29A3", "value": "−0.02"}, {"measurement": "RNA-seq results, SLC33A1", "setting": "gene SLC33A1", "value": 0.02}]}]}
